From patent publication US11155546B2, “4,6,7-trisubstituted 1,2-dihydropyrrolo[3,4-c]pyridin/pyrimidin-3-one derivatives and uses thereof” (SHANGHAI HAIYAN PHARMACEUTICAL TECHNOLOGY CO., LTD., priority 2017, dated 2021) come the findings set out here.

The term AUC denotes the area under the concentration-time curve, a measure of exposure. Lower therefore signals less exposure. As usually defined, the Cmax is the highest concentration seen after dosing. One may read the Tmax as the time from dosing to the highest level. Usually bioavailability stands for dose-corrected exposure relative to a reference, in per cent. Low readings indicate poor availability, high ones good availability. By half-life is commonly meant how long it takes for the measured level to halve. A higher half-life goes with slow loss. Broadly, the IC50 is the midpoint of a concentration-inhibition curve.

The structures appear in SMILES notation. A value given as a limit tells only on which side of the number the result lay.

One data set in a line: in vivo. As for the experimental part: Test Animals: ICR mice, weight 28-30 g, male, totally 12, purchased from SLAC Laboratory Animal Co., Ltd. Mice were fasting one night before administration and freely fed 4 hours after administration.
Administration and Blood collection: 6 mice were administered intragastrically (PO) in a administered dosage of 30 mg/kg and a administered volume of 10 mL/kg. One administration route was subjected with 6 mice, blood samples of three mice were collected at one time point, and blood samples of another three mice were collected at alternate time point alternately. Blood was collected at 8 time points of 0.083, 0.25, 0.5, 1, 2, 4, 8, 24 h after administration respectively.
Animals were manually controlled at the time of collection and approximately 80 μL of blood was collected from the mice fundus venous plexus into a tube containing K2EDTA. The collected blood sample was put on wet ice, centrifuged within 15 min (8000 rpm, 4 min at 4° C.), and then the plasma sample was taken and stored at minus 20° C. till analysis. The compounds were prepared on the day of the experiment.
Solvent excipient information: DMSO (brand: Sigma, batch number: SHBD2446V); 2-hydroxypropyl-3-cyclodextrin (brand: Sigma, batch number: BCBN8227V), acetic acid (brand: Sinopharm Group, batch number: 20150616), sodium acetate (Brand: GENERAL-REAGENT, batch number: P1246037).
Preparation of a 3 mg/mL PO dosing solution: the solvent was a solution of 5% DMSO and 95% PH4.5 (sodium acetate-acetate) in 20% of 2-hydroxypropyl-β-cyclodextrin.
Analytical method: Plasma samples were analyzed by liquid chromatography-tandem mass spectrometry (Instrument type: Triple Quad™ 4000).
Preparation of the standard curve: preparing a standard curve of the test compound 1n the plasma matrix of ICR mice with a linear range of 1.00-3000 ng/mL, and preparing control samples at low, medium and high concentrations of 3 ng/mL, 500 ng/mL, and 2400 ng/mL respectively.
Treatment of biological samples: the frozen plasma samples were thawed on ice, and after the samples were thawed, they were vortexed on a vortex for 5 min. 20 μL of plasma sample was added to a 96-well plate, and 200 μL of acetonitrile (brand: Merck, Lot: 1854029643) containing an internal standard dexamethasone (Brand: NIFDC, Lot: 1N2V-DPGY, 2000 ng/mL) was added to precipitate protein, which were vortexed for 5 min, and then centrifuged at 3700 rpm and 4° C. for 15 min. The supernatant was extracted and twice centrifuged under the same conditions, and finally 2 μL of the supernatant solution was analyzed by LC-MS/MS.

For the next data set, the target named is βBTK Y223 (Homo sapiens (Human), UniProt Q06187). Nature of the data set: Intracellular βBTK Y223 phosphorylation HTRF in Ramos cells. It counts as cell-based. As for the experimental part: The compound was predissolved in 100% DMSO. […] 20 μl of lysate (4× lysate: blocked mother liquor is 25:1) was added to each well and incubated for 30 minutes at 25° C. on a shaker. It was shaken on an oscillator at 800 rpm for 1 minute. […] The half-inhibitory concentration IC50 was calculated by fitting with XLFIT 5.0 software (IDBS, UK).
Chain of βBTK Y223 (Q06187 whole entry): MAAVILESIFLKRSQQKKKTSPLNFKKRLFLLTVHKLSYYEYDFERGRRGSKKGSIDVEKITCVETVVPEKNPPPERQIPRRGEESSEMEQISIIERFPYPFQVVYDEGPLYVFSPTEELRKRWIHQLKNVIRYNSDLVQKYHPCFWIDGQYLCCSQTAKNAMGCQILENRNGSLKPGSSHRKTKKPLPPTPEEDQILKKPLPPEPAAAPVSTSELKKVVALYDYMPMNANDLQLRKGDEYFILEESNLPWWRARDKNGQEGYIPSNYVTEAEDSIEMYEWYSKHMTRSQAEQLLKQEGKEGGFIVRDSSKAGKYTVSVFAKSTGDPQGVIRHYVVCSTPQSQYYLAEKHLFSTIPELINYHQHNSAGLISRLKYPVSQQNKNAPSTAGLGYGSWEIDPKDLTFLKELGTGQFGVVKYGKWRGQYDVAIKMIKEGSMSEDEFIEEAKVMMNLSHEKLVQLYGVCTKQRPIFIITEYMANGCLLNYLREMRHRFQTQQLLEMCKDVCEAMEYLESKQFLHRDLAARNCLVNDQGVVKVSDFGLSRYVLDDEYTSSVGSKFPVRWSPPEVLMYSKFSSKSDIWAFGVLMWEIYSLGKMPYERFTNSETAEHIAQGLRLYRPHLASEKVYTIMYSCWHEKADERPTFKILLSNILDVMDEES
On the technique in general: Time-resolved FRET reads energy transfer from a long-lived donor to a nearby acceptor.

The next data set addresses BTK WT (Homo sapiens (Human), UniProt Q06187). Nature of the data set: Lantha screening kinase reaction, inhibition of BTK WT. It counts as biochemical. The procedure, abridged:
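Wild-type BTK kinase reaction with compound at 10-0.005 μM final, 60 minutes at 25° C in the dark; stopped with 5 mM EDTA plus 0.2 nM Tb PY20 antibody, 30 minutes. TR-FRET 520/500 nm ratio gave inhibition versus enzyme-only and blank wells; IC50 from curve fitting.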

For the next data set, the target named is wild-type EGFR kinase (Homo sapiens (Human), UniProt P00533). Description: Wild type EGFR kinase inhibition test (z-lyte). It counts as biochemical. The conditions noted are these: 10 μM ATP; read-out: EGFR WT IC50. Summed up:
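Z-lyte FRET read-out, emission ratio coumarin 450 nm/fluorescein 520 nm converted to phosphorylation ratio, then inhibition relative to control. IC50 obtained by curve fitting.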

Setting [1] is: male, ICR, mouse, in vivo, po, 30 mg/kg.

Chain of BTK WT (Q06187 whole entry): as above
Chain of wild-type EGFR kinase (P00533 25-1210): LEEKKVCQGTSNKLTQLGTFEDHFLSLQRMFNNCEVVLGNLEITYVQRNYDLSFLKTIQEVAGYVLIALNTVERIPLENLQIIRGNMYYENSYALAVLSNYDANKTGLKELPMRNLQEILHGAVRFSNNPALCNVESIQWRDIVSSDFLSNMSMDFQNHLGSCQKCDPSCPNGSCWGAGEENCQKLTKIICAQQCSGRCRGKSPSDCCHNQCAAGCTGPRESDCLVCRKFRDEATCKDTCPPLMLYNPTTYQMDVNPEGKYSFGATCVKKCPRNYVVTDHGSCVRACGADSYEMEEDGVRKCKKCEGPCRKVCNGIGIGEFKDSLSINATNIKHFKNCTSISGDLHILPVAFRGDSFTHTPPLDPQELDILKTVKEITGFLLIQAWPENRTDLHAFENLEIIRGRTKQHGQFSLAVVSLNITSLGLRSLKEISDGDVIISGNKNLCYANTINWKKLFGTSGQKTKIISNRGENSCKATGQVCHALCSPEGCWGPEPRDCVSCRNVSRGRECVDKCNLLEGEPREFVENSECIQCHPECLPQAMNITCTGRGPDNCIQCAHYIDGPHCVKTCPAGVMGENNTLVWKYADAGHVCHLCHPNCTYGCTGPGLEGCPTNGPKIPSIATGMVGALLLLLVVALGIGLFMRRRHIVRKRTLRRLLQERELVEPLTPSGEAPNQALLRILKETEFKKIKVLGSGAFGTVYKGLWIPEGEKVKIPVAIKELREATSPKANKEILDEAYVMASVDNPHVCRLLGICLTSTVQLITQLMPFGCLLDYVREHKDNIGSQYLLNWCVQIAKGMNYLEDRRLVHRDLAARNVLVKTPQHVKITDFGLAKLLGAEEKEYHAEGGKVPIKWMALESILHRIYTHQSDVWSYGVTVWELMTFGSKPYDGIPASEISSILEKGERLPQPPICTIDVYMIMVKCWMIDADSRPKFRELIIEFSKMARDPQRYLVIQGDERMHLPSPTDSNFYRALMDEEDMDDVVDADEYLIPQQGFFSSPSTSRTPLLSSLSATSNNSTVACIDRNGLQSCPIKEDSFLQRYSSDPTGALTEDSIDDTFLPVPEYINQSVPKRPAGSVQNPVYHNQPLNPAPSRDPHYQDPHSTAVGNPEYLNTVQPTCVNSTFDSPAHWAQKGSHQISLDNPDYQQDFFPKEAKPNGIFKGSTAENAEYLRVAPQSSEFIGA

Take `C=CC(=O)N1CCCC(Nc2nc(-c3cnn(C)c3)c3c(c2F)CNC3=O)C1` (stereo not drawn) [Compound G-7, 6-(1-acryloylpiperidin-3-ylamino)-7-fluoro-4-(1-methyl-1H-pyrazole-4-yl)-1H-pyrrolo[3,4-c]pyridine-3(2H)-one]: in “in vivo” (setting [1]), the AUC came out at 1330 ng·h/mL, the highest level (Cmax) was 1830 ng/mL, the Tmax came out at 4.8 min and the bioavailability was 25.4%. The same compound had a half-life in the data set “in vivo” (setting [1]) of 93 min. The same compound registered an IC50 against βBTK Y223 of 11 nM. In addition, the concentration for half-maximal inhibition (IC50) at BTK WT is 35 nM. Moreover, at wild-type EGFR kinase, the IC50 is 3950 nM.
In the case of `C=CC(=O)N1CCCC(Nc2nc(Nc3ccc(N4CCOCC4)cc3)c3c(c2F)CNC3=O)C1` (stereo not drawn) [Compound G-14], in the data set “in vivo” (mouse, in vivo, po, 30 mg/kg), the “Area under curve AUC” value was 1072 ng·h/mL, the “Maximum blood concentration Cmax” value is 1240.0 ng/mL, the “Oral relative bioavailability F (%)” value was 13.7% and the “Tmax” value turned out to be 4.8 min. Further, in “in vivo” (mouse, in vivo, po, 30 mg/kg), the “half-time T1/2” value came out at 148 min. The same compound showed an IC50 against βBTK Y223 of 3 nM. Moreover, it took 3 nM to reach half-maximal inhibition against BTK WT (IC50). Further, the IC50 on wild-type EGFR kinase is 4130 nM.
As to `C=CC(=O)N1CC(Nc2nc(-c3cnn(C)c3)c3c(c2F)CNC3=O)CCC1C` (stereo not drawn) [Compound G-26, 6-(1-acryloyl-6-methylpiperidin-3-ylamino)-7-fluoro-4-(1-methyl-1H-pyrazole-4-yl)-1H-pyrrolo[3,4-c]pyridine-3(2H)-one], in “in vivo” (setting [1]), the AUC amounted to 1290 ng·h/mL, the Cmax is 2400 ng/mL, the Tmax came to 4.8 min and the bioavailability turned out to be 13.1%. In “in vivo” (setting [1]), this compound showed a half-life of 127 min. For the same compound, on βBTK Y223, inhibition was half-maximal at 47 nM (IC50). Also, the IC50 against BTK WT turned out to be 27 nM. Moreover, at wild-type EGFR kinase, the IC50 worked out at 6690 nM.
For `C=CC(=O)N1CCCC(Nc2nc(Nc3ccc(N4CCOCC4)cc3F)c3c(c2F)CNC3=O)C1` (stereo not drawn) [Compound G-31], in the data set “in vivo” (mouse, in vivo, po, 30 mg/kg), the “Area under curve AUC” value worked out at 1839 ng·h/mL, the “Maximum blood concentration Cmax” value is listed as 1237.0 ng/mL, the “Oral relative bioavailability F (%)” value amounted to 28.2% and the “Tmax” value came out at 15 min. The “half-time T1/2” value in “in vivo” (mouse, in vivo, po, 30 mg/kg) stood at 103 min. This compound returned an IC50 on βBTK Y223 of 11 nM. Besides, the IC50 at BTK WT was found to be 7 nM. For the same compound, the IC50 on wild-type EGFR kinase was found to be 7930 nM.
As to `C=CC(=O)N1CCCC(Nc2nc(Nc3ccc(N4CCOCC4)c(Cl)c3)c3c(c2F)CNC3=O)C1` (stereo not drawn) [Compound G-39], in “in vivo” (mouse, in vivo, po, 30 mg/kg), the “Area under curve AUC” value came out at 1182 ng·h/mL, the “Maximum blood concentration Cmax” value amounted to 1501.0 ng/mL, the “Oral relative bioavailability F (%)” value is 15.2% and the “Tmax” value came to 4.8 min. Also, in “in vivo” (mouse, in vivo, po, 30 mg/kg), the “half-time T1/2” value came out at 138 min. In addition, at βBTK Y223, the IC50 was 3 nM. For the same compound, the IC50 on BTK WT worked out at 2 nM. Also, the IC50 at wild-type EGFR kinase was determined as 6310 nM.
On to `C=CC(=O)N1CCCC(N(C)c2nc(-c3cnn(C)c3)c3c(c2F)CNC3=O)C1` (stereo not drawn) [Compound G-60, 6-((1-acryloylpiperidin-3-yl)(methyl)amino)-7-fluoro-4-(1-methyl-1H-pyrazole-4-yl)-1H-pyrrolo[3.4-c]pyridine-3 (2H)-one], for which the “efficacy of the compound in mice compared with the compound without substituent on the nitrogen atom attached to the piperidine ring” value in “in vivo” (ICR mice, PO 30 mg/kg, pairs G-7/G-60, G-14/G-71, G-23/G-72) was “significantly lower”. For the same compound, in the data set “in vivo” (mouse, in vivo, po, 30 mg/kg), the “Area under curve AUC” value was 109 ng·h/mL, the “Maximum blood concentration Cmax” value worked out at 351.7 ng/mL, the “Oral relative bioavailability F (%)” value came out at 3% and the “Tmax” value stood at 4.8 min. The “half-time T1/2” value in the data set “in vivo” (mouse, in vivo, po, 30 mg/kg) worked out at 634.2 min. The same compound registered an IC50 on βBTK Y223 of 24 nM. The IC50 against BTK WT is 9 nM. Also, at wild-type EGFR kinase, the IC50 is above 10000 nM.
As for `C=CC(=O)N1CCCC(N(C)c2nc(Nc3ccc(N4CCOCC4)cc3)c3c(c2F)CNC3=O)C1` (stereo not drawn) [Compound G-71, 6-((1-acryloylpiperidin-3-yl)(methyl)amino)-7-fluoro-4-(4-morpholin)-1H-pyrrolo[3,4-c]pyridine-3 (2H)-one], in the data set “in vivo” (setting [1]), the AUC worked out at 606 ng·h/mL, the Cmax came out at 533 ng/mL, the Tmax stood at 4.8 min and the bioavailability came to 7.4%. This compound gave a half-life in the data set “in vivo” (setting [1]) of 679 min. For the same compound, the “efficacy of the compound in mice compared with the compound without substituent on the nitrogen atom attached to the piperidine ring” value in the data set “in vivo” (mouse, in vivo, po, 30 mg/kg) is on record as “significantly lower”. Further, the IC50 at βBTK Y223 is 3 nM. Besides, on BTK WT, the IC50 was determined as 5 nM. The IC50 at wild-type EGFR kinase was 1590 nM.
In the case of `C=CC(=O)N1CCCC(N(C)c2nc(Nc3cc(C)ns3)c3c(c2F)CNC3=O)C1` (stereo not drawn) [Compound G-72, 6-((1-acryloylpiperidin-3-yl)(methyl)amino)-7-fluoro-4-(3-methylisothiazole-5-ylamino)-1H-pyrrolo[3,4-c]pyridine-3(2H)-one], in the data set “in vivo” (setting [1]), the AUC worked out at 107 ng·h/mL, the peak level (Cmax) was 10.7 ng/mL, the Tmax amounted to 15 min and the half-life was 679 min. Also, in “in vivo” (mouse, in vivo, po, 30 mg/kg), the “efficacy of the compound in mice compared with the compound without substituent on the nitrogen atom attached to the piperidine ring” value is recorded as “significantly lower”. Further, half-maximal inhibition against βBTK Y223 (IC50) was put at 4 nM. The compound also registered a half-inhibitory concentration (IC50) on BTK WT of 5 nM. The IC50 on wild-type EGFR kinase amounted to 1660 nM.
